{
  "source": "patent US20250144067A1",
  "about": "“PERSONALIZED STARVATION THERAPY FOR CANCER” (Faeth Therapeutics, Inc., priority 2021, published 2025)",
  "key": {"[1]": {"system": "NCI-H292 lung cancer cells", "test": "FDA drug screening, complete media vs cholesterol-free media without statin (TABLE 1)", "type": "cell-based, human"}, "[2]": {"system": "NCI-H292 lung cancer cells", "test": "FDA drug screening, complete media vs cholesterol-free media with simvastatin (TABLE 2)", "type": "cell-based, human", "details": "for Cholesterol-free media + simvastatin (0.04 μM) / Complete Media: NCI-H292 cells"}, "[3]": {"details": "NCI-H292 cells, cholesterol-free media without statin"}, "[4]": {"details": "complete vs cholesterol-free media, greater than 0 enhanced anti-cancer activity, about 0 neutral, below 0 antagonists"}, "[5]": {"details": "FDA drug library screen, cholesterol-free media with simvastatin 0.04 μM"}, "[6]": {"details": "FDA drug library screen, complete media"}, "[7]": {"details": "complete media minus cholesterol-free media + simvastatin, >0 enhanced anti-cancer activity, about 0 neutral, <0 antagonist"}, "[8]": {"details": "Complete minus Cholesterol-free, >0 enhanced anti-cancer activity, about 0 neutral, <0 antagonist"}, "[9]": {"details": "cholesterol-free media with simvastatin 0.04 μM, cell growth value in FDA drug screen"}, "[10]": {"details": "complete media, cell growth value in FDA drug screen"}, "[11]": {"details": "Complete minus Cholesterol-free, greater than 0 enhanced anti-cancer activity, about 0 neutral, below 0 antagonists"}, "[12]": {"details": "NCI-H292 cells in cholesterol-free media without statin"}, "[13]": {"details": "NCI-H292 cells in complete media"}, "[14]": {"details": "drug in cholesterol-free media with simvastatin 0.04 μM"}, "[15]": {"details": "complete media vs cholesterol-free media + simvastatin (0.04 μM), >0 enhanced anti-cancer activity, about 0 neutral, <0 antagonist"}, "[16]": {"details": "NCI-H292 cells, cholesterol-free media without statin, FDA drug library screen"}, "[17]": {"details": "NCI-H292 cells, complete media, FDA drug library screen"}, "[18]": {"details": "FDA library drug in cholesterol-free media with simvastatin 0.04 μM"}, "[19]": {"details": "FDA library drug in complete media"}, "[20]": {"details": "cholesterol-free media with simvastatin 0.04 μM, FDA drug library screen (TABLE 2)"}, "[21]": {"details": "complete media minus cholesterol-free media + simvastatin (0.04 μM), >0 enhanced anti-cancer activity, about 0 neutral, <0 antagonist"}},
  "note": "Structures can show the parent of a compound that is named as a salt.",
  "data": [
    {"compound": "O=c1n(CCCN2CCN(c3cccc(Cl)c3)CC2)nc2ccccn12", "note": "[Trazodone (hydrochloride)]", "values": [
      {"measurement": "Cholesterol-free", "setting": "[1]; [3]", "value": 1.4},
      {"measurement": "Complete", "setting": "[1]; NCI-H292 cells, complete media", "value": 1.032},
      {"measurement": "Difference", "setting": "[1]; [4]", "value": "−0.37"},
      {"measurement": "Cholesterol-free media + simvastatin (0.04 μM)", "setting": "[2]; [5]", "value": 0.8105},
      {"measurement": "Complete Media", "setting": "[2]; [6]", "value": 1.053},
      {"measurement": "Difference", "setting": "[2]; [7]", "value": 0.24}
    ]},
    {"compound": "Cn1c(=O)cc(N2CCC[C@@H](N)C2)n(Cc2cc(F)ccc2C#N)c1=O", "note": "[Trelagliptin]", "values": [
      {"measurement": "Difference", "setting": "[1]; [8]", "value": "−0.22"},
      {"measurement": "Cholesterol-free", "setting": "[1]; [3]", "value": 0.9224},
      {"measurement": "Complete", "setting": "[1]; NCI-H292 cells, complete media", "value": 0.705},
      {"measurement": "Cholesterol-free media + simvastatin (0.04 μM)", "setting": "[2]; [9]", "value": 1.142},
      {"measurement": "Complete Media", "setting": "[2]; [10]", "value": 1.234},
      {"measurement": "Difference", "setting": "[2]; [7]", "value": 0.09}
    ]},
    {"compound": "CS(=O)(=O)OC[C@H](O)[C@@H](O)COS(C)(=O)=O", "note": "[Treosulfan]", "values": [
      {"measurement": "Difference", "setting": "[1]; [11]", "value": "−0.50"},
      {"measurement": "Cholesterol-free", "setting": "[1]; [12]", "value": 1.319},
      {"measurement": "Complete", "setting": "[1]; [13]", "value": 0.8211},
      {"measurement": "Cholesterol-free media + simvastatin (0.04 μM)", "setting": "[2]; [14]", "value": 1.216},
      {"measurement": "Complete Media", "setting": "[2]; drug in complete media", "value": 1.032},
      {"measurement": "Difference", "setting": "[2]; [15]", "value": "−0.18"}
    ]},
    {"compound": "CCCCC[C@H](O)CC[C@@H]1[C@H]2Cc3cccc(OCC(=O)O)c3C[C@H]2C[C@H]1O", "note": "[Treprostinil (sodium)]", "values": [
      {"measurement": "Difference", "setting": "[1]; [8]", "value": "−0.02"},
      {"measurement": "Cholesterol-free", "setting": "[1]; [16]", "value": 1.017},
      {"measurement": "Complete", "setting": "[1]; [17]", "value": 0.9998},
      {"measurement": "Cholesterol-free media + simvastatin (0.04 μM)", "setting": "[2]; [14]", "value": 1.119},
      {"measurement": "Complete Media", "setting": "[2]; drug in complete media", "value": 0.898},
      {"measurement": "Difference", "setting": "[2]; [15]", "value": "−0.22"}
    ]},
    {"compound": "CCCCC[C@H](O)CC[C@@H]1[C@H]2Cc3cccc(OCC(=O)O)c3C[C@H]2C[C@H]1O", "note": "[Treprostinil]", "values": [
      {"measurement": "Difference", "setting": "[1]; [11]", "value": "−0.50"},
      {"measurement": "Cholesterol-free", "setting": "[1]; [12]", "value": 1.45},
      {"measurement": "Complete", "setting": "[1]; [13]", "value": 0.9512},
      {"measurement": "Cholesterol-free media + simvastatin (0.04 μM)", "setting": "[2]; [18]", "value": 1.177},
      {"measurement": "Complete Media", "setting": "[2]; [19]", "value": 0.8507},
      {"measurement": "Difference", "setting": "[2]; [15]", "value": "−0.33"}
    ]},
    {"compound": "CC(C)(C)CC(=O)OCC(=O)[C@@]12OC(C)(C)O[C@@H]1C[C@H]1[C@@H]3CCC4=CC(=O)C=C[C@]4(C)[C@@]3(F)[C@@H](O)C[C@@]12C", "note": "[Triamcinolone hexacetonide]", "values": [
      {"measurement": "Difference", "setting": "[1]; [8]", "value": "−0.20"},
      {"measurement": "Cholesterol-free", "setting": "[1]; [3]", "value": 0.7329},
      {"measurement": "Complete", "setting": "[1]; NCI-H292 cells, complete media", "value": 0.5285},
      {"measurement": "Cholesterol-free media + simvastatin (0.04 μM)", "setting": "[2]; [18]", "value": 1.053},
      {"measurement": "Complete Media", "setting": "[2]; [19]", "value": 0.6525},
      {"measurement": "Difference", "setting": "[2]; [15]", "value": "−0.40"}
    ]},
    {"compound": "C[C@]12C=CC(=O)C=C1CC[C@H]1[C@@H]3C[C@@H](O)[C@](O)(C(=O)CO)[C@@]3(C)C[C@H](O)[C@@]12F", "note": "[Triamcinolone]", "values": [
      {"measurement": "Difference", "setting": "[1]; [8]", "value": "−0.27"},
      {"measurement": "Cholesterol-free", "setting": "[1]; [3]", "value": 0.8896},
      {"measurement": "Complete", "setting": "[1]; NCI-H292 cells, complete media", "value": 0.6155},
      {"measurement": "Cholesterol-free media + simvastatin (0.04 μM)", "setting": "[2]; [20]", "value": 1.201},
      {"measurement": "Difference", "setting": "[2]; [21]", "value": "−0.04"}
    ]},
    {"compound": "Nc1nc(N)c2nc(-c3ccccc3)c(N)nc2n1", "note": "[Triamterene]", "values": [
      {"measurement": "Cholesterol-free", "setting": "[1]; [16]", "value": 0.6087},
      {"measurement": "Complete", "setting": "[1]; [17]", "value": 1.304},
      {"measurement": "Difference", "setting": "[1]; complete vs cholesterol-free media, >0 enhanced anti-cancer activity, about 0 neutral, <0 antagonist", "value": 0.69},
      {"measurement": "Cholesterol-free media + simvastatin (0.04 μM)", "setting": "[2]; [18]", "value": 1.582},
      {"measurement": "Complete Media", "setting": "[2]; [19]", "value": 1.301},
      {"measurement": "Difference", "setting": "[2]; [15]", "value": "−0.28"}
    ]},
    {"compound": "CCCCCCCC(=O)OCC(COC(=O)CCCCCCC)OC(=O)CCCCCCC", "note": "[Tricaprilin]", "values": [
      {"measurement": "Difference", "setting": "[1]; [8]", "value": 0.03},
      {"measurement": "Cholesterol-free", "setting": "[1]; [16]", "value": 0.9476},
      {"measurement": "Complete", "setting": "[1]; [17]", "value": 0.9746},
      {"measurement": "Cholesterol-free media + simvastatin (0.04 μM)", "setting": "[2]; [5]", "value": 1.072},
      {"measurement": "Complete Media", "setting": "[2]; [6]", "value": 0.9486},
      {"measurement": "Difference", "setting": "[2]; [15]", "value": "−0.12"}
    ]},
    {"compound": "NS(=O)(=O)c1cc2c(cc1Cl)NC(C(Cl)Cl)NS2(=O)=O", "note": "(stereo not shown) [Trichlormethiazide]", "values": [
      {"measurement": "Cholesterol-free", "setting": "[1]; [3]", "value": 1.351},
      {"measurement": "Complete", "setting": "[1]; NCI-H292 cells, complete media", "value": 0.9482},
      {"measurement": "Difference", "setting": "[1]; [4]", "value": "−0.40"},
      {"measurement": "Cholesterol-free media + simvastatin (0.04 μM)", "setting": "[2]; [9]", "value": 1.02},
      {"measurement": "Complete Media", "setting": "[2]; [10]", "value": 1.045},
      {"measurement": "Difference", "setting": "[2]; [7]", "value": 0.02}
    ]},
    {"compound": "CSc1nc2cc(Cl)c(Oc3cccc(Cl)c3Cl)cc2[nH]1", "note": "[Triclabendazole]", "values": [
      {"measurement": "Difference", "setting": "[1]; [11]", "value": "−0.64"},
      {"measurement": "Cholesterol-free", "setting": "[1]; [12]", "value": 1.673},
      {"measurement": "Complete", "setting": "[1]; [13]", "value": 1.028},
      {"measurement": "Complete Media", "setting": "[2]; [6]", "value": 1.193},
      {"measurement": "Difference", "setting": "[2]; [7]", "value": 0.25}
    ]},
    {"compound": "O=C(Nc1ccc(Cl)cc1)Nc1ccc(Cl)c(Cl)c1", "note": "[Triclocarban]", "values": [
      {"measurement": "Difference", "setting": "[1]; [8]", "value": "−0.05"},
      {"measurement": "Cholesterol-free", "setting": "[1]; [16]", "value": 0.8072},
      {"measurement": "Complete", "setting": "[1]; [17]", "value": 0.7602},
      {"measurement": "Cholesterol-free media + simvastatin (0.04 μM)", "setting": "[2]; [20]", "value": 1.029},
      {"measurement": "Complete Media", "setting": "[2]; complete media, FDA drug library screen (TABLE 2)", "value": 0.9601},
      {"measurement": "Difference", "setting": "[2]; [21]", "value": "−0.07"}
    ]},
    {"compound": "Oc1cc(Cl)ccc1Oc1ccc(Cl)cc1Cl", "note": "[Triclosan]", "values": [
      {"measurement": "Difference", "setting": "[1]; Complete minus Cholesterol-free, […]", "value": "−0.91"},
      {"measurement": "Cholesterol-free", "setting": "[1]; [12]", "value": 1.986},
      {"measurement": "Complete", "setting": "[1]; [13]", "value": 1.081},
      {"measurement": "Cholesterol-free media + simvastatin (0.04 μM)", "setting": "[2]; cholesterol-free media with simvastatin 0.04 μM, […]", "value": 1.015},
      {"measurement": "Complete Media", "setting": "[2]; complete media, […]", "value": 1.093},
      {"measurement": "Difference", "setting": "[2]; complete media minus cholesterol-free media + simvastatin, […]", "value": 0.08}
    ]},
    {"compound": "CC(C)(C)c1cc(-c2cc(-c3ccc(C(=O)O)cc3)ccc2OCCO)ccc1N1CCCC1", "note": "[Trifarotene]", "values": [
      {"measurement": "Cholesterol-free", "setting": "[1]; [3]", "value": 1.099},
      {"measurement": "Complete", "setting": "[1]; NCI-H292 cells, complete media", "value": 0.7867},
      {"measurement": "Difference", "setting": "[1]; [4]", "value": "−0.31"},
      {"measurement": "Cholesterol-free media + simvastatin (0.04 μM)", "setting": "[2]; [5]", "value": 0.9343},
      {"measurement": "Complete Media", "setting": "[2]; [6]", "value": 0.8355},
      {"measurement": "Difference", "setting": "[2]; [15]", "value": "−0.10"}
    ]}
  ]
}
